Measurements reported in patent US20150368617A1, “METHOD FOR FORMING ENDOTHELIAL CELLS” (Korea Advanced Institute of Science and Technology (KAIST), priority 2012, published 2015).

Columns and labels:
Format in all cases: cell-based, mouse
ICAM2+ ECs [1] = assay: Quantitative RT-PCR of EC- and MC-related genes in purified ICAM2+ ECs; conditions: VEGF-A plus Y27632 compared to VEGF-A
Source text: Total RNA from purified ICAM-2+ ECs was extracted using Trizol RNA extraction kit (Invitrogen) according to the manufacturer's instructions. 1┌ g of the RNA was reverse transcribed into cDNA using GoScript™ cDNA synthesis system (Promega). Synthesized cDNA was applied for quantitative real-time PCR using FastStart SYBR green Master (Roche) and Bio-Rad S1000 Thermal cycler with the indicated primers (Table I). GAPDH was used as reference gene and the results were presented as relative expression to control using the ddCt method.

ESC = assay: Estimation of number of ECs generated from one ESC in the 2D Matrigel system; conditions: day 8.5
Experimental: FIG. 16. Estimation and comparison of number of ECs generated from one ESC grown with indicated agents in the 2D Matrigel system at day 6.5 and 8.5. Estimation was calculated from 5 independent incubations.
To maximize the amount of ECs obtained from ESC, we expanded the ICAM2+ ECs for 2 days using the same culture system with VEGF-A and Y27632 (FIG. 14A). When the ECs were grown for 2 days without either VEGF-A or Y27632, the population of CD31+/CD144+ ECs underwent a decrease of ˜30% from the initial population of ˜90% (FIG. 14B-D). […] This way, we were further able to obtain ˜4.2-fold expansion of CD31+/CD144+ ECs from the ICAM2+ ECs (FIGS. 14B-F) In the presence of VEGF-A, Y27632 promoted the adhesion of ICAM2+ ECs onto the plate by 1.3-fold at 6 hrs after plating (FIG. 14G). In these purified ECs, Y27632 and VEGF-A each promoted the proliferation of ECs to a similar level, and combination of Y27632 and VEGF-A promoted EC proliferation to a greater degree. […] Based on these findings, we conclude that further expansion of high purity ECs (>90%) could be achieved from ESC by combination of simultaneous ROCK suppression and VEGF-stimulation—these high purity ECs are hereafter referred to as “VEGF-A plus Y27632-induced and anti-ICAM2 antibody-sorted ECs (VYI-ECs)” (FIG. 14A). […]

ICAM2+ ECs [2] = assay: Apoptosis assay (Annexin V/PI) in ICAM2+ ECs
Experimental: FIGS. 15A-15D. ROCK suppression continuously promotes the expansion of ECs. ICAM2+ ECs were further incubated with PBS (Control), Y27632 (10┌ M), VEGF-A (50 ng/ml; VA) or Y27632 (10┌ M) plus VEGF-A (50 ng/ml) for 2 days, and analyses were performed at day 8.5. (FIG. 15A) Representative FACS analysis showing cell cycle in ICAM2+ ECs at 12 hrs. (FIG. 15B) % of ICAM2+ ECs under each phase of cell cycle at 12 hrs. Each group, n=3. *p<0.01 versus Control; ^#p<0.01 versus VEGF-A. (FIG. 15C) Representative FACS analysis of Annexin V+/PI− apoptotic ECs. (FIG. 15D) % of Annexin V+/PI− ECs. Each group, n=3. *p<0.01 versus Control.
(§1) Apoptosis assay was performed as previously described. To determine the cell cycle, BrdU/7-AAD cell cycle analysis was performed according to the manufacturer's instructions (BD Pharmingen™). Briefly, cells were incubated with BrdU (1 mM) for 1 hr, dissociated with dissociation buffer, and stained with anti-CD144 antibody. The cells were then fixed, permeabilized, and fixed once more, followed by 1 hr incubation with DNase I (200 U) at 37┌ C. After incubation with FITC-conjugated anti-BrdU antibody for 20 min at RT, the cells were stained with 7-AAD. The cells were analyzed by FACS Aria II and the data were analyzed using FlowJo software.

Flk1+ MPCs = assay: Apoptosis assay (Annexin V/PI) in differentiating Flk1+ MPCs; conditions: 6 and 36 hrs
Experimental: as §1

C[C@@H](N)[C@H]1CC[C@H](C(=O)Nc2ccncc2)CC1 [Y27632]
calponin mRNA, reduced expression level (ICAM2+ ECs [1]): 25 fold
claudin-5 mRNA, expressed more (ICAM2+ ECs [1]): 4.6 fold
dll4 mRNA, expressed more (ICAM2+ ECs [1]): 2.5 fold
ets1 mRNA, expressed more (ICAM2+ ECs [1]): 1.4 fold
ets2 mRNA, expressed more (ICAM2+ ECs [1]): 2.1 fold
notch1 mRNA, expressed more (ICAM2+ ECs [1]): 1.5 fold
sm22a mRNA, reduced expression level (ICAM2+ ECs [1]): 25 fold
sma mRNA, reduced expression level (ICAM2+ ECs [1]): 17 fold
sox17 mRNA, expressed more (ICAM2+ ECs [1]): 1.7 fold
sox18 mRNA, expressed more (ICAM2+ ECs [1]): 1.8 fold
vegfr3 mRNA, expressed more (ICAM2+ ECs [1]): 1.7 fold
number of ECs generated from one ESC (from ˜73 Flk1+ MPCs) (ESC): ~36
apoptosis of ECs (ICAM2+ ECs [2]): mildly inhibited
population of Annexin V+/PI- apoptotic cells (Flk1+ MPCs): did not significantly change
